According to patent publication US9353150B2, “Substituted pyrazino[1′,2′:1 ,5]pyrrolo[2,3-b]-indole-1,4-diones for cancer treatment” (Massachusetts Institute of Technology, priority 2012, dated 2016):
Read-outs that look alike come from different tables or passages of the source.

Legend:
[1] = test system: U-937 (hystiocytic lymphoma); assay: 72-hour IC50 determination for non-adherent cells using MTS; format: cell-based, human
Method: (§1) Certain synthesized compounds were screened for their ability to induce death in two human cancer cell lines: U-937 (leukemic monocyte lymphoma) and HeLa (cervical cancer).
(§2) Cells were grown in media supplemented with fetal bovine serum (FBS) and antibiotics ([…]). Specifically, experiments were performed using the following cell lines and media compositions: U-937, HeLa, H460, and 786-O (RPMI-1640+10% FBS), and MCF7 (EMEM+10% FBS). Cells were incubated at 37° C. in a 5% CO2, 95% humidity atmosphere.
(§3) In a 96-well plate, compounds were pre-added as DMSO stocks in triplicate to achieve a final concentration of 1%. DMSO and cell-free wells served as the live and dead control, respectively. U-937 (5,000 cells/well) cells were distributed in 100 μL media to the compound-containing plate. After 72 hours, cell viability was assessed by adding 20 μL of a PMS/MTS solution (Cory, A. H.; Owen, T. C.; Barltrop, J. A.; Cory, J. G. Cancer Commun. 1991, 3, 207) to each well, allowing the dye to develop at 37° C. until the live control had processed MTS, and reading the absorbance at λ=490 nm. IC50 values were determined from three or more independent experiments using TableCurve (San Jose, Calif.).

human cancer cell lines = assay: Anticancer activity in human cancer cell lines, not tied to one cell line; format: cell-based; conditions: for anticancer activity, in words: human cancer cell lines, 72-hour exposure
Method: as §1
(§4) Certain provided compounds were tested in culture against a panel of three supplementary human cancer cell lines representing three additional tumor histologies (H460, lung carcinoma; 786-O, renal carcinoma; MCF-7, breast carcinoma). As shown in Table E1-2, the ETPs retain their potency across the cell lines. In some embodiments, a provided compound is active in all cell lines. In some embodiments, a provide compound can be used to selectively target certain cells and/or cancers. […] Without the intention to be limited, Applicant notes that certain cell lines could be more sensitive to provided compounds; for example, U-937 and HeLa are slightly more sensitive to the ETPs than the other three cell lines.
(§5) Adherent cells (HeLa, H460, 786-O, and MCF7) were added into 96-well plates (5,000 cells/well for HeLa cell line; 2,000 cells/well for H460, 786-O, and MCF7 cell lines) in 100 μL media and were allowed to adhere for 2-3 hours. Compounds were solubilized in DMSO as 100× stocks, added directly to the cells (100 μL final volume), and tested over a range of concentrations in triplicate (1% DMSO final) on a half-log scale. Concentrations tested ranged from […] to 10 μM, depending on the potency of the compound. DMSO and cell-free wells served as the live and dead control, respectively. After 72 hours of continuous exposure, the plates were evaluated using the SRB colorimetric assay as described previously (Vichai, V.; Kirtikara, K. Nature Prot. 2006, 1, 1112). Briefly, media was removed from the plate, and cells were fixed by the addition of 100 μL cold 10% trichloroacetic acid in water. After incubating at 4° C. for an hour, the plates were washed in water and allowed to dry. Sulforhodamine B was added as a 0.057% solution in 1% acetic acid (100 μL), and the plates were incubated at room temperature for 30 minutes, washed in 1% acetic acid, and allowed to dry. The dye was solubilized by adding 10 mM Tris base solution (pH 10.5, 200 μL) and incubating at room temperature for 30 minutes. Plates were read at λ=510 nm. IC50 values were determined from three or more independent experiments using TableCurve (San Jose, Calif.).
as §3

MCF-7 (breast carcinoma) = assay: 72-hour IC50 determination for adherent cells using sulforhodamine B (SRB); format: cell-based, human; conditions: error is standard deviation of the mean, n ≧ 3, read-out: MCF-7, 72-hour IC50 (Table E1-2)
Method: as §4, §2, §5

H460 (lung carcinoma) = assay: as above; format: cell-based, human; conditions: error is standard deviation of the mean, n ≧ 3, read-out: H460, 72-hour IC50 (Table E1-2)
Method: as §4, §2, §5

786-O (renal carcinoma) = assay: as above; format: cell-based, human; conditions: error is standard deviation of the mean, n ≧ 3, read-out: 786-O, 72-hour IC50 (Table E1-2)
Method: as §4, §2, §5

[2] = test system: HeLa (cervical carcinoma); assay: as above; format: cell-based, human
Method: as §1, §2, §5

[3] = 72-hour exposure, MTS, error is standard deviation of the mean, n ≧ 3, read-out: U-937, 72-hour IC50 (Table E1-1)
[4] = 72-hour exposure, MTS, error is standard deviation of the mean, n ≧ 3, read-out: U-937, 72-hour IC50 (Table E1-2)
[5] = 72-hour exposure, SRB, error is standard deviation of the mean, n ≧ 3, read-out: HeLa, 72-hour IC50 (Table E1-1)
[6] = 72-hour exposure, SRB, error is standard deviation of the mean, n ≧ 3, read-out: HeLa, 72-hour IC50 (Table E1-2)
[7] = Homo sapiens, U-937, 72-hour exposure, MTS, error is standard deviation of the mean, n ≧ 3, read-out: U-937, 72-hour IC50 (Table E1-1)
[8] = Homo sapiens, U-937, 72-hour exposure, MTS, error is standard deviation of the mean, n ≧ 3, read-out: U-937, 72-hour IC50 (Table E1-2)
[9] = Homo sapiens, MCF7, 72-hour exposure
[10] = Homo sapiens, NCI-H460, 72-hour exposure
[11] = Homo sapiens, 786-0, 72-hour exposure
[12] = Homo sapiens, HeLa, 72-hour exposure, SRB, error is standard deviation of the mean, n ≧ 3, read-out: HeLa, 72-hour IC50 (Table E1-1)
[13] = Homo sapiens, HeLa, 72-hour exposure, SRB, error is standard deviation of the mean, n ≧ 3, read-out: HeLa, 72-hour IC50 (Table E1-2)
[14] = Homo sapiens, U-937, 72 h, read-out: U-937, 72-hour IC50 (Table E1-1)
[15] = Homo sapiens, HeLa, 72 h, read-out: HeLa, 72-hour IC50 (Table E1-1)

Structure (SMILES) | IC50 [1, 3] [µM] | IC50 [1, 4] [µM] | anticancer activity, in words (human cancer cell lines) | IC50 (MCF-7 (breast carcinoma); 72-hour exposure) [µM] | IC50 (H460 (lung carcinoma); 72-hour exposure) [µM] | IC50 (786-O (renal carcinoma); 72-hour exposure) [µM] | IC50 [2, 5] [µM] | IC50 [2, 6] [µM] | IC50 [1, 7] [µM] | IC50 [2, 12] [µM] | other results
CN1C(=O)[C@@]23C[C@]4(F)c5ccccc5N(S(=O)(=O)c5ccccc5)[C@@H]4N2C(=O)[C@@H]1SS3 [Compound 31, C3-Fluoro epidithiodiketopiperazines] | 0.0207 ± 0.0064 | 0.0207 ± 0.0064 | intermediately good activity | 0.218 ± 0.097 | > 1 | 0.368 ± 0.078 | 1.53 ± 0.44 | 1.53 ± 0.44 | – | – | –
CC(=O)S[C@H]1C(=O)N2[C@H]3N(S(=O)(=O)c4ccccc4)c4ccccc4[C@@]3(c3c[nH]c4ccccc34)C[C@]2(SC(C)=O)C(=O)N1C [Compound 44, C3-(Indol-3′-yl)bisthloaeetate] | – | – | competent anticancer agents | – | – | – | – | – | 0.0041 ± 0.0005 | 0.0173 ± 0.0045 | IC50 [1, 8]: 0.0041 ± 0.0005 µM; IC50 (MCF-7 (breast carcinoma); [9]): 0.103 ± 0.037 µM; IC50 (H460 (lung carcinoma); [10]): 0.149 ± 0.059 µM; IC50 (786-O (renal carcinoma); [11]): 0.151 ± 0.007 µM; IC50 [2, 13]: 0.0173 ± 0.0045 µM
CN1C(=O)[C@@]23C[C@]4([C@]56C[C@@]78SS[C@@](C)(C(=O)N7[C@H]5Nc5ccccc56)N(C)C8=O)c5ccccc5N[C@@H]4N2C(=O)[C@]1(C)SS3 [Compound 3, (+)-12,12′-dideoxyverticillin A] | 0.0155 ± 0.0029 | 0.0155 ± 0.0029 | active across the board | 0.0284 ± 0.0045 | 0.042 ± 0.015 | 0.0335 ± 0.0126 | 0.0072 ± 0.003 | 0.0072 ± 0.003 | – | – | IC50 ([1]; 72-hour exposure, read-out: IC50 (U-937)): 0.0155 µM; IC50 ([2]; 72-hour exposure, read-out: IC50 (HeLa)): 0.0072 µM
CN1C(=O)[C@@]23C[C@]4(c5c[nH]c6ccccc56)c5ccccc5N(S(=O)(=O)c5ccccc5)[C@@H]4N2C(=O)[C@]1(C)SS3 [Compound 60, C3-(Indol-3′-yl) epidithiodiketopiperazines] | 0.056 ± 0.023 | 0.056 ± 0.023 | – | 0.327 ± 0.036 | 0.165 ± 0.065 | 0.907 ± 0.048 | 0.067 ± 0.011 | 0.067 ± 0.011 | – | – | –
CC(=O)OC[C@]12SS[C@@]3(C[C@]4([C@]56C[C@@]78SS[C@@](COC(C)=O)(C(=O)N7[C@H]5Nc5ccccc56)N(C)C8=O)c5ccccc5N[C@@H]4N3C1=O)C(=O)N2C [Compound 15] | 0.0047 ± 0.0013 | 0.0047 ± 0.0013 | – | 0.077 ± 0.036 | 0.14 ± 0.082 | 0.095 ± 0.023 | 0.0141 ± 0.0074 | 0.0141 ± 0.0074 | – | – | –
CSS[C@H]1C(=O)N2[C@H]3N(S(=O)(=O)c4ccccc4)c4ccccc4[C@@]3(c3cn(SC)c4ccccc34)C[C@]2(SSC)C(=O)N1C [Compound 45, C3-(Indol-3′-yl) N-(thiomethyl)bis(methyldisulfane)] | – | – | competent anticancer agents | – | – | – | – | – | 0.0145 ± 0.0091 | 0.0137 ± 0.0023 | IC50 [1, 8]: 0.0145 ± 0.0091 µM; IC50 (MCF-7 (breast carcinoma); [9]): 0.373 ± 0.075 µM; IC50 (H460 (lung carcinoma); [10]): 0.252 ± 0.037 µM; IC50 (786-O (renal carcinoma); [11]): 0.376 ± 0.12 µM; IC50 [2, 13]: 0.0137 ± 0.0023 µM
CSS[C@H]1C(=O)N2[C@H]3N(S(=O)(=O)c4ccccc4)c4ccccc4[C@@]3(c3c[nH]c4ccccc34)C[C@]2(SSC)C(=O)N1C [Compound 46, C3-(Indol-3′-yl)bis(methyldlsulfane)] | – | – | competent anticancer agents | – | – | – | – | – | 0.0204 ± 0.009 | 0.0366 ± 0.0039 | –
CC(=O)OC[C@]12SSS[C@@]3(C[C@]4([C@]56C[C@@]78SSS[C@@](COC(C)=O)(C(=O)N7[C@H]5N(C(=O)C(F)(F)F)c5ccccc56)N(C)C8=O)c5ccccc5N(C(=O)C(F)(F)F)[C@@H]4N3C1=O)C(=O)N2C [Compound 17] | 0.0089 ± 0.0023 | 0.0089 ± 0.0023 | – | > 0.333 | 0.179 ± 0.088 | 0.189 ± 0.026 | 0.0281 ± 0.0022 | 0.0281 ± 0.0022 | – | – | –
COCS[C@H]1C(=O)N2[C@H]3Nc4ccccc4[C@@]3(c3c[nH]c4ccccc34)C[C@]2(SCOC)C(=O)N1C [Compound 41, C3-(Indol-3′-yl)bis(S-MOM)ether] | – | – | – | – | – | – | – | – | > 10 | > 10 | IC50 (human cancer cell lines; Homo sapiens, cell line not named in the sentence (U-937 and HeLa screened), read-out: IC50 (did not display any anticancer activity)): > 10 µM
CCCC12CC34SSC(C)(C(=O)N3C1N(S(=O)(=O)c1ccccc1)c1ccccc12)N(C)C4=O (stereo not drawn) [Compound 61, β-C3-Propyl epidithiodiketopiperazine] | – | – | substantially lower potencies | – | – | – | – | – | – | – | IC50 [1, 14]: > 1 µM; IC50 [2, 15]: > 1 µM
CN1C(=O)[C@]23C[C@]4(c5c[nH]c6ccccc56)c5ccccc5N(S(=O)(=O)c5ccccc5)[C@@H]4N2C(=O)[C@@]1(C)SS3 [Compound 62, C3-(Indol-3′-yl) epidithiodiketopiperazines] | > 1 | – | inactive | – | – | – | > 1 | – | – | – | –
CC(=O)OC[C@]12SSS[C@@]3(C[C@]4([C@]56C[C@@]78SSS[C@@](COC(C)=O)(C(=O)N7[C@H]5Nc5ccccc56)N(C)C8=O)c5ccccc5N[C@@H]4N3C1=O)C(=O)N2C [Compound 16] | 0.0097 ± 0.0021 | 0.0097 ± 0.0021 | – | 0.263 ± 0.098 | 0.187 ± 0.079 | 0.204 ± 0.04 | 0.07 ± 0.02 | 0.07 ± 0.02 | – | – | –
CN1C(=O)[C@@]23C[C@]4(c5c[nH]c6ccccc56)c5ccccc5N[C@@H]4N2C(=O)[C@@H]1SS3 [Compound 10, (+)-12-deoxybionectin A] | – | – | – | – | – | – | – | – | – | – | IC50 [1, 14]: 0.0174 ± 0.0011 µM; IC50 ([1]; Homo sapiens, U-937, 72 h, read-out: U-937, 72-hour IC50 (Table E1-2)): 0.0174 ± 0.0011 µM; IC50 (MCF-7 (breast carcinoma); [9]): 0.156 ± 0.018 µM; IC50 (H460 (lung carcinoma); [10]): 0.215 ± 0.1 µM; IC50 (786-O (renal carcinoma); [11]): 0.181 ± 0.026 µM; IC50 [2, 15]: 0.117 ± 0.026 µM; IC50 ([2]; Homo sapiens, HeLa, 72 h, read-out: HeLa, 72-hour IC50 (Table E1-2)): 0.117 ± 0.026 µM
CCC[C@]12C[C@@]34SC(=S)S[C@@](C)(C(=O)N3C1N(S(=O)(=O)c1ccccc1)c1ccccc12)N(C)C4=O (stereo partly drawn) [Compound 65, C3-Propyl dithiepanethiones] | – | – | substantially lower potencies | – | – | – | – | – | > 1 | > 1 | –
CCCC12CC34SSC(C)(C(=O)N3C1N(S(=O)(=O)c1ccccc1)c1ccccc12)N(C)C4=O (stereo not drawn) [Compound 63, α-C3-Propyl epidithiodiketopiperazine] | – | – | inactive | – | – | – | – | – | – | – | IC50 ([1]; read-out: U-937, 72-hour IC50 (Table E1-1), 72-hour exposure, MTS, error is standard deviation of the mean, n ≧ 3): > 1 µM; IC50 ([2]; read-out: HeLa, 72-hour IC50 (Table E1-1), 72-hour exposure, SRB, error is standard deviation of the mean, n ≧ 3): > 1 µM
